The results in this text go back to ChEMBL document CHEMBL6120982, “Cell-penetrating anti-sense peptide nucleic acids targeting sulfatase 2 inhibit adipogenesis in human mesenchymal stem cells” (Bioorg Med Chem, 2024).

Data set [1] deals with Mesenchymal stem cells. Description: Effect on osteogenesis in ascorbic acid/dexamethasone/beta-glycerol phosphate differentiated human BMMSC cells. It counts as functional, cell-based.
Data set [2] deals with Mesenchymal stem cells. Kind of data set: Cytotoxicity against human BMMSC cells assessed as effect on cell viability upto 1 uM incubated for 24 hrs by CCK8 assay. In kind it is toxicity, cell-based.
Data set [3] concerns DNA. Kind of data set: Binding affinity to N-terminal of 10-mer c-DNA (unknown origin) assessed as melting temperature at 4 uM by UV-Vis spectrophotometric analysis. It counts as nucleic-acid assay.
Data set [4] relates to Mesenchymal stem cells. Description: Anti-adipogenic activity in insulin/dexamthasone/pioglitazone/IBMX differentiated human BMMSC cells assessed as downregulation of adiponectin protein secretion by ELISA. In kind it is functional, cell-based.
Data set [5] concerns Mesenchymal stem cells. Description: Anti-adipogenic activity in insulin/dexamthasone/pioglitazone/IBMX differentiated human BMMSC cells assessed as downregulation of adiponectin protein secretion at 1 uM by ELISA. In kind it is functional, cell-based.
The test system of data set [6] is Mesenchymal stem cells. Kind of data set: Inhibition of SULF2 mRNA expression in human BMMSC cells by RT-qPCR analysis. It counts as functional, cell-based. Conditions: dose 0.01-1 µM.
In data set [7] the test system is Mesenchymal stem cells. Kind of data set: Inhibition of SULF2 mRNA expression in human BMMSC cells at 0.1 uM by RT-qPCR analysis. In kind it is functional, cell-based.
For data set [8], the system named is DNA. Description: Binding affinity to C-terminal of 10-mer c-DNA (unknown origin) assessed as melting temperature at 4 uM by UV-Vis spectrophotometric analysis. In kind it is nucleic-acid assay.

The source made the active and inactive calls. No cut-off for these calls is given here.

Turning to `Cc1cn(CC(=O)N(CCNC(=O)CN(CCNC(=O)CN(CCNC(=O)CN(CCNC(=O)CN(CCNC(=O)CN(CCNC(=O)CN(CCNC(=O)CN(CCNC(=O)CN(CCNC(=O)CN(CCNC(=O)CN(CCNC(=O)CN(CCNC(=O)CN(CCNC(=O)CN(CCNC(=O)CN(CCNC(=O)CN(CCNC(=O)CN(CCNC(=O)CN(CCNC(=O)CN(CCNC(=O)CN(CCNC(=O)OCCC2c3ccccc3-c3ccccc32)C(=O)Cn2cnc3c(=O)[nH]c(N)nc32)C(=O)Cn2cnc3c(=O)[nH]c(NCCCCCCN)nc32)C(=O)Cn2cnc3c(=O)[nH]c(N)nc32)C(=O)Cn2cnc3c(=O)[nH]c(N)nc32)C(=O)Cn2cc3cc(COCCN)[nH]c3nc2=O)C(=O)Cn2ccc(N)nc2=O)C(=O)Cn2ccc(N)nc2=O)C(=O)Cn2cnc3c(N)nc(NCCCCCN)nc32)C(=O)Cn2cc(C)c(=O)[nH]c2=O)C(=O)Cn2ccc(N)nc2=O)C(=O)Cn2cc(C)c(=O)[nH]c2=O)C(=O)Cn2cc(C)c(=O)[nH]c2=O)C(=O)Cn2cc3cc(COCCN)[nH]c3nc2=O)C(=O)Cn2cc(C)c(=O)[nH]c2=O)C(=O)Cn2cc(C)c(=O)[nH]c2=O)C(=O)Cn2cc(C)c(=O)[nH]c2=O)C(=O)Cn2cc(C)c(=O)[nH]c2=O)C(=O)Cn2cc(C)c(=O)[nH]c2=O)C(=O)Cn2cc(C)c(=O)[nH]c2=O)CC(N)=O)c(=O)[nH]c1=O`, the result with Mesenchymal stem cells [1] was inactive. The Activity result in the data set with Mesenchymal stem cells [2] is reported as “Non-toxic”. Moreover, the Tm with DNA [3] is greater than 90 °C. For the same molecule, in the data set with Mesenchymal stem cells [4], the IC50 was greater than 1000 nM. For the same molecule, in the data set on Mesenchymal stem cells [5], the result was Active. Further, the inhibition result in the data set on Mesenchymal stem cells [6] was “Dose-dependent-effect”; with Mesenchymal stem cells [7], “Mild_effect”.
For `Cc1cn(CC(=O)N(CCNC(=O)CN(CCNC(=O)CN(CCNC(=O)CN(CCNC(=O)CN(CCNC(=O)CN(CCNC(=O)CN(CCNC(=O)CN(CCNC(=O)CN(CCNC(=O)CN(CCNC(=O)CN(CCNC(=O)CN(CCNC(=O)CN(CCNC(=O)CN(CCNC(=O)CN(CCNC(=O)CN(CCNC(=O)CN(CCNC(=O)CN(CCNC(=O)OCCC2c3ccccc3-c3ccccc32)C(=O)Cn2cc(C)c(=O)[nH]c2=O)C(=O)Cn2cnc3c(=O)[nH]c(N)nc32)C(=O)Cn2ccc(N)nc2=O)C(=O)Cn2cnc3c(N)nc(NCCCCCN)nc32)C(=O)Cn2cc(C)c(=O)[nH]c2=O)C(=O)Cn2cnc3c(=O)[nH]c(N)nc32)C(=O)Cn2cnc3c(=O)[nH]c(N)nc32)C(=O)Cn2cnc3c(N)nc(NCCCCCN)nc32)C(=O)Cn2cnc3c(N)ncnc32)C(=O)Cn2ccc(N)nc2=O)C(=O)Cn2cc3cc(COCCN)[nH]c3nc2=O)C(=O)Cn2cc(C)c(=O)[nH]c2=O)C(=O)Cn2cnc3c(=O)[nH]c(N)cc32)C(=O)Cn2ccc(N)nc2=O)C(=O)Cn2cnc3c(N)nc(NCCCCCN)nc32)C(=O)Cn2cnc3c(N)ncnc32)C(=O)Cn2cnc3c(=O)[nH]c(NCCCCCCN)nc32)CC(=O)NCCN(CC(=O)NCCN(CC(N)=O)C(=O)Cn2cnc3c(N)ncnc32)C(=O)Cn2ccc(N)nc2=O)c(=O)[nH]c1=O`, in the data set with Mesenchymal stem cells [1], the outcome was inactive. The Activity result in the data set with Mesenchymal stem cells [2] is “Non-toxic”. Also, the Tm in the data set on DNA [3] was found to be 66.4 °C; in the data set on DNA [8], 51.1 °C. In addition, in the data set with Mesenchymal stem cells [7], the inhibition entry was “inactive”.
